Results taken from PubChem BioAssay (NCI).
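Five concentrations, 48 hours, 96-well plates. GI50 marks 50% less growth. TGI: total growth inhibition.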

What was measured:
Test in all cases: inhibition of tumour cell growth, NCI panel, 48 h
UACC-257 melanoma = system: UACC-257 melanoma
A549 NSCLC = system: A549 NSCLC
SN12C renal = system: SN12C renal
HCC-2998 colon = system: HCC-2998 colon
ACHN renal = system: ACHN renal
M14 melanoma = system: M14 melanoma
LOX IMVI melanoma = system: LOX IMVI melanoma
SK-MEL-5 melanoma = system: SK-MEL-5 melanoma
OVCAR-8 ovarian = system: OVCAR-8 ovarian
IGROV1 ovarian = system: IGROV1 ovarian
RXF 393 renal = system: RXF 393 renal
KM12 colon = system: KM12 colon
SNB-75 CNS = system: SNB-75 CNS
NCI/ADR-RES ovarian = system: NCI/ADR-RES ovarian
MDA-MB-435 = system: MDA-MB-435

SMILES | TGI (UACC-257 melanoma) [µM] | TGI (A549 NSCLC) [µM] | TGI (SN12C renal) [µM] | TGI (HCC-2998 colon) [µM] | TGI (ACHN renal) [µM] | TGI (M14 melanoma) [µM] | TGI (LOX IMVI melanoma) [µM] | TGI (SK-MEL-5 melanoma) [µM] | TGI (OVCAR-8 ovarian) [µM] | TGI (IGROV1 ovarian) [µM] | TGI (RXF 393 renal) [µM] | TGI (KM12 colon) [µM] | TGI (SNB-75 CNS) [µM] | GI50 (RXF 393 renal) [µM] | GI50 (SK-MEL-5 melanoma) [µM] | TGI (NCI/ADR-RES ovarian) [µM] | TGI (MDA-MB-435) [µM]
COC(=O)C(Br)C1CCc2ccccc21 (stereo not given) | > 100 | > 100 | > 100 | > 100 | > 100 | > 100 | > 100 | > 100 | > 100 | > 100 | – | – | – | – | – | – | –
C=CCN1/C(=C2\SC(=S)N(c3ccc(C)cc3)C2=O)Sc2c1nc[nH]c2=O | > 100 | > 100 | > 100 | – | > 100 | > 100 | > 100 | > 100 | > 100 | > 100 | > 100 | – | – | – | – | – | –
CCCCCCCCCC(=O)OCC1OC(n2cc(F)c(=O)[nH]c2=O)C(NC(=O)OCc2ccccc2)C(OC(=O)CCCCCCCCC)C1O (stereo not given) | > 100 | > 100 | 29.6 | > 100 | > 100 | > 100 | 30.2 | 41.5 | 80.1 | > 100 | 44 | > 100 | > 100 | – | – | – | –
O=C1c2ccccc2C(=O)C1C(c1ccc(F)cc1)C1C(=O)c2ccccc2C1=O | > 100 | > 100 | > 100 | > 100 | > 100 | > 100 | > 100 | > 100 | > 100 | – | 71.3 | > 100 | > 100 | – | – | – | –
C/C=C1\CN2CCc3c([nH]c4ccccc34)C2C=C1CCO (stereo not given) | > 340 | > 340 | > 340 | > 340 | > 340 | – | > 340 | > 340 | > 340 | > 340 | > 340 | > 340 | – | – | – | – | –
O=c1cc(-c2ccco2)[nH]c2cc3c(cc12)OCO3 | > 100 | > 100 | > 100 | > 100 | > 100 | – | > 100 | > 100 | – | > 100 | 92.8 | – | 56.5 | 24.9 | 13.4 | – | –
Cc1[nH]c(=O)[nH]c1C(=O)c1ccc(-n2ccnc2)cc1 | > 100 | > 100 | > 100 | > 100 | > 100 | > 100 | > 100 | > 100 | > 100 | > 100 | > 100 | > 100 | > 100 | – | – | – | –
CCCCNC(=O)C1C2CCC(O2)C1C(=O)O (stereo not given) | 45.7 | > 100 | 30.9 | 46.6 | 57.7 | 29.5 | 34.7 | 45.8 | 43.3 | > 100 | 8.44 | > 100 | 52.1 | – | – | – | –
COc1ccc(NC(=O)C(C)Oc2ccc(OCC3CCCCC3)cc2)cc1 (stereo not given) | > 100 | > 100 | > 100 | > 100 | > 100 | > 100 | > 100 | > 100 | > 100 | > 100 | > 100 | > 100 | > 100 | – | – | – | –
C#CCN(N=O)C(=O)NCCCCC(NC(C)=O)C(=O)NCc1ccccc1 (stereo not given) | > 100 | > 100 | > 100 | > 100 | > 100 | > 100 | > 100 | > 100 | > 100 | > 100 | > 100 | > 100 | > 100 | – | – | – | –
COC(=O)C(C(=O)C(=O)Nc1cccc([N+](=O)[O-])c1)c1nc2ccc([N+](=O)[O-])cc2[nH]c1=O (stereo not given) | > 100 | > 100 | > 100 | > 100 | > 100 | > 100 | > 100 | > 100 | > 100 | > 100 | > 100 | > 100 | > 100 | – | – | – | –
CC1=NN(c2nc(N)nc(C/C(N)=N/O)n2)C(C)(C)C1 | > 100 | > 100 | > 100 | > 100 | > 100 | > 100 | > 100 | > 100 | > 100 | > 100 | – | > 100 | > 100 | – | – | > 100 | > 100
C=C(C(=C)N1N=NC2C3CCC(C3)C21)N1N=NC2C3CCC(C3)C21 (stereo not given) | > 100 | > 100 | > 100 | > 100 | > 100 | > 100 | > 100 | > 100 | > 100 | > 100 | > 100 | > 100 | > 100 | – | – | – | –
C=C1C(OC(=O)/C=C/c2ccccc2)CC(OC(C)=O)C2(C)C1CC1CC(OC(C)=O)C(C)=C(C(OC(C)=O)C2OC(C)=O)C1(C)C (stereo not given) | – | > 100 | > 100 | > 100 | – | > 100 | > 100 | > 100 | > 100 | > 100 | – | > 100 | > 100 | – | – | – | –
CN(C)c1snc2c1c(=O)n(C)c(=O)n2C | > 100 | > 100 | > 100 | > 100 | > 100 | – | > 100 | > 100 | > 100 | > 100 | – | – | > 100 | – | – | – | –
